Data reported in patent US5378813A, “Meso-2,5-dimercapto-N,N,N'N'-tetramethyladipamide” (President and Fellows of Harvard College, priority 1992, dated 1995).
Values after ≈ are worked out from the molar mass of the structure shown. Read-outs that look alike come from different tables or passages of the source. Blank lines part the entries; values can stand above or below the molecule they belong to.

Tests used:
[1] = molecular target: T1, DNase (Bos taurus, UniProt P00639); assay: Rate of reduction (deactivation) of DNase; assay type: biochemical; parameters: kapp^DTA: unit not given here
T1 construct: purchased Sigma
Excerpt: (§1) In papain and creatine kinase, the disulfide being reduced is derived from an essential active site cysteine, (Smith et al., Biochemistry 1975, 14, 766-771) and the rate measured is the rate of reactivation of the modified protein. (Shaked et al., Biochemistry 1980, 19, 4156-4166.) DNase is deactivated by the reduction of an internal disulfide. (Shaked et al., Biochemistry 1980, 19, 4156-4166; and Price et al., J. Biol. Chem. 1969, 244, 929-932.)

[2] = Reduction potential and equilibrium constant for reduction of ME^ox by the dithiol; assay type: physicochemical; conditions: for K, equilibrium constant: reduction of ME^ox with the dithiol in water, pH 7.0, 100 mM phosphate buffer; for ε° (reduction potential): relative to mercaptoethanol (-0.209 V)
Description: We used the equilibrium constant between meso-DTA and DTT to determine the values of ε° and K(ME) of meso-DTA.
(§2) After 4 h, a ^1 H NMR spectrum was obtained.

[3] = Determination of pKa (absorbance at 238 nm against pH); assay type: physicochemical; conditions: for fraction existing as the thiolate: pH 7.0; for pKa: aqueous buffers
Description: The absorbance at 238 nm of meso-DTA (100 μL of an 8 mM ethanolic solution of meso-DTA) in various aqueous buffers (3 mL, 50 mM: 2,2-dimethylsuccinate, pH 6.0, 6.4, 6.8; Tris, pH 7.0, 7.3, 7.7, 8.0, 8.3, 8.7; glycine, pH 9.0, 9.5, 10.0) was plotted against pH. This curve was then compared with plots derived from theory.

[4] = Solubility in phosphate buffer; assay type: physicochemical; conditions: reduced (dithiol) form, phosphate buffer pH 7.0, 100 mM phosphate, 25° C
Description: ^e The solubilities were determined in phosphate buffer (pH 7.0, 100

[5] = Equilibration of dl-DTA and meso-DTA (1H NMR); assay type: physicochemical; conditions: 100 mM phosphate buffer, pD 7.0
Description: dl-DTA^OX (2 mg in 0.5 mL of buffered D2 O (100 mM NaPO4, pD 7.0)) and meso-DTA (6 mg in 1.5 mL of buffered D2 O (100 mM NaPO4, pD 7.0)) were mixed in an NMR tube, and ^1 H NMR spectra were taken at various times. The value of Keq was calculated from the ^1 H NMR integrals.

[6] = Kinetics of reduction of mercaptoethanol disulfide by 1H NMR spectroscopy; assay type: physicochemical; parameters: kapp^DTA / kapp, apparent rate constant: unit not given here; conditions: for kapp, apparent rate constant: reduction of mercaptoethanol disulfide (ME^ox), pH 7.0, aqueous phosphate buffer (50 mM)
Description: (§3) The thiol-disulfide interchange reaction was quenched by addition of 25 μL of a DCl solution (12 wt % in D2 O) in one tube after 2 min, in another tube after 4 min, and in another tube after 6 min. The same series of experiments was carried out with the meso-DTA solution instead of the DTT solution. The second-order rate constant was calculated from the integrals of the ^1 H NMR spectra.

[7] = reference value to which all ε° are relative; cited from earlier work
[8] = Kinetics of reduction of glutathione disulfide by 1H NMR spectroscopy; assay type: physicochemical; parameters: kapp^DTA: unit not given here; conditions: pH 7.0, 298 K
Description: as §3

[9] = molecular target: T2, papain-S-S-Me (Carica papaya, UniProt P00784); assay: Kinetics of reactivation of papain-S-S-Me; assay type: biochemical; parameters: kapp^DTA: unit not given here
T2 construct: purchased Boehringer Mannheim
T2 sequence (P00784 134-345): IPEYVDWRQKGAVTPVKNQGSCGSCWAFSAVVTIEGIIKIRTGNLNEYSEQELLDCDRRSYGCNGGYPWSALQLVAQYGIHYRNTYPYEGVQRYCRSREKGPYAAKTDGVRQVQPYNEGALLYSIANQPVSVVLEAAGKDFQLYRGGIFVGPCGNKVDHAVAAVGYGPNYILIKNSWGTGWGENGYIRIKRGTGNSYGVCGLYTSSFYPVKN
Description: as §1
The papain-S-S-Me was prepared as described by Shaked et al., Biochemistry 1980, 19, 4156-4166. […] Chem. 1991, 56, 2332-2337.

[10] = molecular target: T3, creatine kinase-S-S-glutathione (Oryctolagus cuniculus, UniProt P00563); assay: Kinetics of reactivation of creatine kinase-S-S-glutathione; assay type: biochemical; parameters: kapp^DTA: unit not given here
T3 construct: purchased Sigma
Excerpt: as §1
The solution of creatine kinase S-S-glutathione (the procedure was analogous to that of Walters and Gilbert, J. Biol. Chem. 1986, 261, 15372-15377) (10 μL) was diluted with deoxygenated aqueous buffer (pH 7.0, 0.1M imidazole, 2 mM EDTA, 2.5 mL). The diluted solution was added to two flasks (1.0 mL each). […] At various times, a 50-μL aliquot was withdrawn and added to an assay solution (950 μL, pH 6.0, 0.1M imidazole, 2 mM EDTA, 10 mM MgCl2, 2 mM ADP, 20 mM d-glucose, 2 mM NADP, 30 mM phosphocreatine, hexokinase (50 units/mL), glucose-6-phosphate dehydrogenase (35 units/mL)). The rate of increase in absorbance at 340 nm was recorded. (Gerhardt, Methods of Enzymatic Analysis, 3rd ed.; Bergmeyer, Ed.; Verlag Chemie: Weinheim, 1983; Vol. III, pp. 508-524.)

[11] = Equilibrium experiment, meso-DTA with DTT^OX (1H NMR); assay type: physicochemical; conditions: 50 mM phosphate buffer, pD 7.0
Description: as §2

[12] = Relative rate of reduction of disulfides, meso-DTA compared with DTT (summary and calculation); assay type: physicochemical; conditions: pH 7.0
Excerpt: as §1
The difference between the calculated and the actual value for proteins could be due to steric interactions, because meso-DTA is a secondary thiol and DTT is a primary thiol. The difference in rates could also be due to the relative difference in hydrophobicities of the two compounds.

[13] = reduction of an internal disulfide, aqueous solution, pH 7.0, 298 K
[14] = aqueous buffer, read-out: solubility
[15] = DMH data from Singh and Whitesides 1991
[16] = rate of reactivation, aqueous solution, pH 7.0, 298 K

T3 sequence (P00563 2-381 limits assumed): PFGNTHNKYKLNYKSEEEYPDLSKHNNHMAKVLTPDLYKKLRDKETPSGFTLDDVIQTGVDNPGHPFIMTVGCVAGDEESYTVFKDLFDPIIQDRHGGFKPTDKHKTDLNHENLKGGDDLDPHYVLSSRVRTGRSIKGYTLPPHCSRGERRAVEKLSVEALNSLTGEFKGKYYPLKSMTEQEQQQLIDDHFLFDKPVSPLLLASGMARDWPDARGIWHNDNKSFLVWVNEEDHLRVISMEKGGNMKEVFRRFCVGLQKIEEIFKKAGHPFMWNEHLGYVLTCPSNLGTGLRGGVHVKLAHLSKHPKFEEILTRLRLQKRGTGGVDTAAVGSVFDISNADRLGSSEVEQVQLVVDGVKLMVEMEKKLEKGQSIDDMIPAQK
T1 sequence (P00639 23-282): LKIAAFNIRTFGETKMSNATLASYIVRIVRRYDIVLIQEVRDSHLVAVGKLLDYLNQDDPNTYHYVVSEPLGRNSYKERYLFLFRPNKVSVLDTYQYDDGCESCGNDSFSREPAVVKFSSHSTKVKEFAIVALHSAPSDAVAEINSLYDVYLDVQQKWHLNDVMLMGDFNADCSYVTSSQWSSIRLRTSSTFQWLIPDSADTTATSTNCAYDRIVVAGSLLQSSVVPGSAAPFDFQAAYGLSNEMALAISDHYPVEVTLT

Structure (SMILES): O[C@H](CS)[C@H](O)CS (racemic) [DTT, dithiothreitol, reference compound]
kapp^DTT [1, 13]: 0.19 M^1 g^-1
K, equilibrium constant [2]: 10^5 M
ε° (reduction potential) [2]: -0.356 V
fraction existing as the thiolate [3]: about 1%
solubility [4]: high

factor by which more reducing than meso-DTA [5]: 10
K, equilibrium constant [2]: 10^4 M
ε° (reduction potential) [2]: -0.328 V
Structure (SMILES): CN(C)C(=O)[C@H](S)CC[C@@H](S)C(=O)N(C)C (relative stereo) [dl-DTA]

K, equilibrium constant [2]: 10^3 M
ε° (reduction potential) [2]: -0.300 V
pKa ([3]; read-out: pKa (first thiol)): 7.6
pKa ([3]; read-out: pKa (second thiol)): 8.9
solubility [4, 14]: 250 mM (≈ 52.1 mg/mL)
Structure (SMILES): CN(C(=O)CS)N(C)C(=O)CS [DMH, N,N'-dimethyl-N,N'-bis(mercaptoacetyl) hydrazine, reference compound]
kapp, apparent rate constant [6]: 0.52

Structure (SMILES): OCCS [ME, Mercaptoethanol]
ε° of the reference mercaptoethanol [7]: -0.209 V

Structure (SMILES): CN(C)C(=O)[C@H](S)CC[C@H](S)C(=O)N(C)C [meso-DTA, meso-2,5-Dimercapto-N,N,N',N'-tetramethyladipamide]
kapp^DTA / kapp^DTT ([6]; mercaptoethanol disulfide, pH 7.0, 298 K): 7.7
kapp^DTA / kapp^DMH ([6]; mercaptoethanol disulfide, DMH data from Singh and Whitesides 1991): 1.1
kapp, apparent rate constant [6]: 0.50
kapp^DTA ([6]; reduction of mercaptoethanol disulfide, aqueous solution, pH 7.0, 298 K): 0.50
kapp^DTA / kapp^DTT ([8]; glutathione disulfide): 5.5
kapp^DTA ([8]; reduction of glutathione disulfide, aqueous solution): 0.31
kapp^DTA / kapp^DMH [9, 15]: 0.15
kapp^DTA / kapp^DTT ([9]; pH 7.0, 298 K): 4.5
kapp^DTA [9, 16]: 260
kapp^DTA / kapp^DMH [10, 15]: 0.5
kapp^DTA / kapp^DTT ([10]; pH 7.0, 298 K): 3.4
kapp^DTA [10, 16]: 78
kapp^DTA / kapp^DMH [1, 15]: 0.4
kapp^DTA / kapp^DTT ([1]; pH 7.0, 298 K): 1.8
kapp^DTA [1, 13]: 0.34
Keq = [meso-DTA^OX][DTT]/[meso-DTA][DTT^OX] [11]: 0.010
Keq = [meso-DTA^OX][dl-DTA]/[meso-DTA][dl-DTA^OX] [5]: 0.10
factor by which the equilibrium constant for reduction of ME^OX is less than that of DTT [2]: 10^2
less reducing than DTT by [2]: approximately 56 mV
K, equilibrium constant [2]: 10^3 M
ε° (reduction potential) [2]: -0.300 V
pKa ([3]; read-out: pKa (first thiol)): 7.8 ± 0.2
pKa ([3]; read-out: pKa (second thiol)): 8.9 ± 0.2
fraction existing as the thiolate [3]: approximately 15%
solubility [4, 14]: 80 mM (≈ 21.2 mg/mL)
times faster reduction of disulfide bonds than DTT ([12]; aqueous solution): up to 8 times
relative rate of reduction compared with DTT, disulfide bond in proteins ([12]; water): 2-5 times
